{
  "source": "paper PMC2794939",
  "about": "(Biochemistry, 2009)",
  "data": [
    {"system": "influenza virus A/M2-V27A/L38F", "format": "cell-based, Influenza A/Udorn/72 virus (recombinant mutant)", "units": {"Plaque count": "plaques/well"}, "values": [
      {"smiles": "NC12CC3CC(CC(C3)C1)C2", "note": "[Amantadine, amantadine]", "Plaque count": 82, "effect on plaque formation (count and size)": "failed to inhibit plaque formation"},
      {"smiles": "C1CCC2(CC1)CCN(C1=NCCN1)CC2", "note": "[BL-1743, 2-[3-azaspiro([5],[5])undecanol]-2-imidazoline]", "Plaque count": 86, "effect on plaque formation (count and size)": "failed to inhibit plaque formation"},
      {"smiles": "NC1CCC2(CCCCC2)CC1", "note": "[Compound 8, spiro[5.5]undecan-3-amine]", "Plaque count": 37, "effect on plaque formation (count and size)": "reduced"}
    ]}
  ]
}
